Test [1] concerns orthotopic KPC tumor. Put plainly: Efficacy and immune parameters (IVIS, IHC) in orthotopic KPC tumor model. Format: in vivo, mouse. The protocol: Panels B and C) IHC analysis to determine CRT (panel B) and LC3B (panel C) expression at the orthotopic tumor site. Imaging intensity was quantitatively expressed as fold increase that was normalized to the saline group. Representative IHC images are shown on the right. Bar is 50 µm. Panel D) Quantitative assessment of HMGB 1 release. The IHC images were analyzed by Aperio ImageScope software to determine protein released from the damaged nuclei, as described in FIG. 22. Data are expressed as mean ± SEM, n=3. *, p<0.05; **, p<0.01; ***, p<0.001 (1-way ANOVA followed by a Tukey’s test).
Additional IHC analysis was undertaken using the tumor samples collected in FIG. 5, panel A. Quantitative assessment of: Panel A) the CD8^+/ FoxP3^+ cell ratio; Panel B), perforin; Panel C) granzyme B; Panel D) IFN-γ production; and Panel E) PD-L1 expression. Representative IHC images appear in FIG. 18, panels A-C. Data are expressed as mean ± SEM, n=3. *, p<0.05; **, p<0.01; ***, p<0.001 (1-way ANOVA followed by a Tukey’s test).
Tumor-bearing mice received IV injection to deliver an IRIN dose of 40 mg/kg (free IRIN or IRIN silicasome) per injection every 3 days for a total of 3 administrations. Control animals received saline only. Animals were sacrificed 72 h after the last injection. To confirm the impact on tumor growth, ex vivo bioluminescence imaging was performed to assess image intensity at the primary and metastatic tumor sites. Primary tumors were fixed in 10% formalin, followed by paraffin embedding and sectioning to provide 4 µm slices for IHC analysis in the UCLA Translational Pathology Core Laboratory (TPCL). The slides were scanned and images were assessed by using Aperio ImageScope software (Leica). Primary antibodies to CD8 (#14-0808-82) and FoxP3 (#13-5773-82) were purchased from ThermoFisher; CRT (ab2907), while antibodies to HMGB1 (ab18256), granzyme B (ab4059), perforin (ab16074) and IFN-γ (ab9657) were purchased from Abcam. The antibody to LC-3 (#0231-100/LC3-5F10) was purchased from Nanotools, while the antibody to PD-L1 (#64988) was purchased from Cell Signaling Technology.

Test [2] has as its system orthotopic KPC tumor. Put plainly: Survival experiment, IRIN silicasome plus anti-PD-1 in orthotopic KPC tumor model. Format: in vivo, mouse. The procedure:
Panel A) Explanation of the KPC model, including orthotopic implant in the pancreas and technical development of the primary tumor and metastases that can be followed by IVIS imaging. Animals were sacrificed according to the moribund criteria shown. Panel B). Details of the survival experiment in tumor-bearing mice (n = 5-7), which were treated with free IRIN or the silicasome at an IRIN dose equivalent of 40 mg/kg IV every 3- or 4-days, with or without IP administration of 100 µg anti-PD-1 antibody, for a total of six administrations. Please notice that the antibody was administered two days after IRIN injection. Saline and anti-PD-1 antibody alone were used as controls. Kaplan-Meier plots were used to display the survival rate of the different animal groups (*p<0.05, Log Rank test).
The KPC-derived orthotopic tumor model in immunocompetent B6129SF1/J mouse was established as described in FIG. 4, panel A. ^[16] Briefly, 30 µL of DMEM/Matrigel (1:1 v/v), containing ~1×10^6 KPC-luc cells, was injected into the tail of the pancreas in female B6129SF1/J mice (8~10 weeks) by a short survival surgery procedure.^[16] In the first survival experiment (FIG. 4, panel B), tumor-bearing mice were randomly assigned into 6 groups (n = 5-7) and received IV injection of the IRIN formulations at API dose of 40 mg/kg. Anti-PD-1 antibody was injected at 100 µg/animal IP. To assess survival rate, animals were monitored daily up to the stage of spontaneous death or approaching moribund status (defined in FIG. 4, panel A)^[16, 36]. The survival data were plotted as Kaplan-Meier curves, followed by data analysis to derive mean survival time. Statistical analysis and p values were obtained by Log Rank testing (Mantel-Cox), using GraphPad Prism 7.00 software.

In the next test the test system is KPC cells. Put plainly: Lysosomal alkalization, LysoTracker Red DND 99 confocal microscopy. The format is cell-based, mouse. The procedure:
Approximately 1.5×10^4 KPC cells were seeded in µ-Slide 8 well (ibidi, 80826). To reveal the intracellular distribution of IRIN, attached KPC cells were treated with IRIN (300 µM) for 24 h. Cell membranes were stained using an Alexa Fluor® 594 conjugated WGA dye (Invitrogen™, W11262) at 2 µg/mL for 10 minutes. After washing, the cells were visualized using a Leica SP8-MD confocal microscope under the 100× objective lens. The excitation and emission wavelengths for IRIN were 405 nm and 440~490 nm, respectively^[51]
IRIN-treated KPC cells were washed and replenished with fresh media containing 100 nM DND-99 dye and 5 µg/mL Hoechst 33342 for nuclear staining. The cells were incubated at 37° C. for 0.5 h, followed by washing with phenol red free media. The cells were then visualized using a Leica SP8-MD confocal microscope under the 100× objective lens.
The of the IRIN silicasome on lysosomal alkalization was performed at drug concentrations of 75 µM and 300 µM in KPC cells. Empty silicasomes (in which a 500 µg/mL particle dose is representative of an encapsulated IRIN dose of 300 µM) was included as control. The assessment of LC3B, p62 and PD-L1 immunoblotting and IF staining were performed in KPC cells during treatment with the IRIN silicasome or empty silicasomes, as described for the free drug.

Molecules are shown by their SMILES. Counter-ions that a name gives are not always drawn.

Take `CCc1c2c(nc3ccc(OC(=O)N4CCC(N5CCCCC5)CC4)cc13)-c1cc3c(c(=O)n1C2)COC(=O)[C@]3(O)CC` [IRIN, Irinotecan hydrochloride trihydrate]: in the test with orthotopic KPC tumor [1] (40 mg/kg IV on days 8, 11, 14, sacrifice day 17), the “tumor size by bioluminescence intensity (IVIS) vs saline” value is on record as “not statistically significant”. Moreover, in the test on orthotopic KPC tumor [1] (40 mg/kg IV x3), the “IFN-γ production in the TME (IHC)” value is given as “significant increase” and the “LC3B staining intensity at tumor site (IHC)” value is given as “significantly increased staining intensity”. Also, the “MST (median survival time)” value with orthotopic KPC tumor [2] (IRIN 40 mg/kg IV, anti-PD-1 100 µg IP, six administrations, saline 19) turned out to be 19 days. For the same compound, the “survival (Kaplan-Meier, Log Rank test)” value in the test with orthotopic KPC tumor [2] (IRIN 40 mg/kg IV, anti-PD-1 100 µg/mouse IP) was “no survival benefits”. Besides, the “% ILS (% increase in life span, [(T - C)/C] × 100)” value in the test with orthotopic KPC tumor [2] (vs. saline) is listed as 0.0%. In addition, in the test with KPC cells (300 µM free IRIN), the “time at which a major DND 99 signal drop is observed” value is 1 h. Besides, in the test on KPC cells (24 hours), the “IRIN dose at which a major DND 99 signal drop is discerned” value is 20 µM. The “DND 99 relative staining intensity” value with KPC cells (IRIN 300 µM, 24 h, untreated cells 57.9 ± 1.3, Image J) came out at 13.9 ± 0.9.
